Earlier results, collected in patent publication US8347551B2, “Method of applying pesticides” (priority 2004, dated 2013).
Read-outs that look alike come from different tables or passages of the source.

Experiments:
pest [1] = conditions: seed treatment; dose giving sufficient control of the pest; dutch registration code no. 11455
pest [2] = conditions: seed treatment, dose giving sufficient control of the pest
pest [3] = conditions: seed treatment; dose giving sufficient control of the pest; dutch registration code no. 8672
pest [4] = conditions: seed treatment; dose giving sufficient control of the pest; dutch registration code no. 11492
pest [5] = conditions: seed treatment; dose giving sufficient control of the pest; dutch registration code no. 8928

Structure (SMILES): O=[N+]([O-])NC1=NCCN1Cc1ccc(Cl)nc1 [imidacloprid]
- Effective Dose (pest [1]): 0.8 g per 1000 lettuce seeds

Structure (SMILES): CCOP(=S)(OCC)Oc1nc(Cl)c(Cl)cc1Cl [chlorpyriphos]
- Effective Dose (pest [2]; dutch registration code no. 10968): 0.096 g per 1000 brassica seeds

Structure (SMILES): COC(=O)Nc1nc2ccccc2[nH]1 [carbendazim]
- Effective Dose (pest [3]): 1 g per kg onion seeds

Structure (SMILES): CN(C)C(=S)SSC(=S)N(C)C [thiram]
- Effective Dose (pest [4]): 1.6 g per kg radish seeds

Structure (SMILES): CC(C)NC(=O)N1CC(=O)N(c2cc(Cl)cc(Cl)c2)C1=O [iprodione]
- Effective Dose (pest [5]): 5 g per kg carrot seeds

Structure (SMILES): COCC(=O)N(c1c(C)cccc1C)[C@H](C)C(=O)OC [metalaxyl-m]
- Effective Dose (pest [2]; dutch registration code no. 12280): 0.175 g per kg brassica seeds
